In US9326513B2, “Fungicidal compositions” (Syngenta Participations AG, priority 2011, dated 2016):

Legend:
Type in all cases: in vivo
Conditions in all cases: foliar, compared to untreated control leaf disks, read-out: disease control
[1] = tested on: Puccinia recondita f. sp. tritici; assay: Puccinia recondita f. sp. tritici / wheat / leaf disc curative (brown rust)
Description: Puccinia recondita f. sp. tritici/Wheat/Leaf Disc Curative (Brown Rust) Wheat leaf segments cv. Kanzler are placed on agar in multiwell plates (24-well format). The leaf segments are inoculated with a spore suspension of the fungus. Plates were stored in darkness at 19° C. and 75% rh. The formulated test compound diluted in water was applied 1 day after inoculation.

Pyrenophora teres = Pyrenophora teres / barley / leaf disc preventative (net blotch)
Source text: Pyrenophora teres/Barley/Leaf Disc Preventative (Net Blotch) Barley leaf segments cv. Hasso were placed on agar in a multiwell plate (24-well format) and sprayed with the formulated test compound diluted in water. The leaf segments were inoculated with a spore suspension of the fungus 2 days after application.

[2] = tested on: Puccinia recondita f. sp. tritici; assay: Puccinia recondita f. sp. tritici / wheat / leaf disc preventative (brown rust)
Source text: Puccinia recondita f. sp. tritici/Wheat/Leaf Disc Preventative (Brown Rust) Wheat leaf segments cv. Kanzler were placed on agar in multiwell plates (24-well format) and sprayed with the formulated test compound diluted in water. The leaf disks were inoculated with a spore suspension of the fungus 1 day after application.

[3] = tested on: Blumeria graminis f. sp. tritici (Erysiphe graminis f. sp. tritici); assay: Blumeria graminis f. sp. tritici / wheat / leaf disc preventative (powdery mildew on wheat)
Procedure, shortened: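 Preventative leaf-disc test: compound (200 ppm) was sprayed onto cv. Kanzler wheat segments, which were dusted with conidia from infected plants 1 day after application. After incubation at 20° C and 60% rh, disease control relative to untreated segments was rated 6-8 days after application.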

Measured: pest or weed control at 200 ppm

CCN(/C=N/c1cc(Br)c(OCCCC(C)C)nc1C)CC [Q.001]
≥ 50%: [1] | Pyrenophora teres | [2] | [3]

CCN/C=N/c1cc(Br)c(OCCCC(C)C)nc1C [Q.004]
≥ 50%: [1] | Pyrenophora teres | [2] | [3]

CCN(C)/C=N/c1cc(Br)c(OCC[C@H]2CC[C@@H](O)CC2)nc1C [Q.005]
≥ 50%: [1] | Pyrenophora teres | [2] | [3]

CCN(C)/C=N/c1cc(C)c(OCCCC(C)C)nc1C [Q.007]
≥ 50%: [1] | Pyrenophora teres | [2] | [3]

CCN(C)/C=N/c1cc(Br)c(OCCc2ccc(OC)cc2)nc1C [Q.011]
≥ 50%: [1] | Pyrenophora teres | [2] | [3]

CCN(C)/C=N/c1cc(Br)c(OCCc2ccc(Br)cc2)nc1C [Q.012]
≥ 50%: [1] | Pyrenophora teres | [2] | [3]

CCN(C)/C=N/c1cc(Br)c(OC(C)CCc2ccc(OC)cc2)nc1C (stereo not shown) [Q.013]
≥ 50%: [1] | Pyrenophora teres | [2] | [3]

CCN(C)/C=N/c1cc(Br)c(OCCCc2ccc(OC)cc2)nc1C [Q.014]
≥ 50%: [1] | Pyrenophora teres | [2] | [3]

CCN(C)/C=N/c1cc(Br)c(OCCC[Si](C)(C)C)nc1C [Q.015]
≥ 50%: [1] | Pyrenophora teres | [2] | [3]

CCN(C)/C=N/c1cc(Br)c(OCC#Cc2ccccc2)nc1C [Q.016]
≥ 50%: [1] | Pyrenophora teres | [2] | [3]

CCN(C)/C=N/c1cc(Br)c(OC2CCc3ccc(OC)cc3C2)nc1C (stereo not shown) [Q.018]
≥ 50%: [1] | Pyrenophora teres | [2] | [3]

CCN(C)/C=N/c1cc(Br)c(OC2CCc3c(cccc3OC)C2)nc1C (stereo not shown) [Q.019]
≥ 50%: [1] | Pyrenophora teres | [2] | [3]

CCN(C)/C=N/c1cc(Br)c(OCC#Cc2cccc(OC)c2)nc1C [Q.020]
≥ 50%: [1] | Pyrenophora teres | [2] | [3]

CCN(C)/C=N/c1cc(Br)c(OC/C=C\c2cccc(OC)c2)nc1C [Q.023]
≥ 50%: [1] | Pyrenophora teres | [2] | [3]

CCN(C)/C=N/c1cc(Br)c(OC2CCc3cccc(OC)c3C2)nc1C (stereo not shown) [Q.024]
≥ 50%: [1] | Pyrenophora teres | [2] | [3]

CCN(C)/C=N/c1cc(Br)c(OC2CCc3cc(F)ccc3C2)nc1C (stereo not shown) [Q.025]
≥ 50%: [1] | Pyrenophora teres | [2] | [3]

CCN(C)/C=N/c1cc(Br)c(OC2CCNCC2)nc1C [Q.053]
≥ 50%: Pyrenophora teres | [3]

CCN(C)/C=N/c1cc(Br)c(OC2CCc3ccc(Br)cc3C2)nc1C (stereo not shown) [Q.067]
≥ 50%: Pyrenophora teres

CCN(C)/C=N/c1cc(Br)c(OCCCC=C(C)C)nc1C [Q.079]
≥ 50%: Pyrenophora teres

CCN(C)/C=N/c1cc(Br)c(OCc2snc(-c3ccc(F)cc3)c2Br)nc1C [Q.125]
≥ 50%: Pyrenophora teres | [2] | [3]

CCN(C)/C=N/c1cc(Br)c(OCc2cccc(C(C)C)c2)nc1C [Q.169]
≥ 50%: [1] | Pyrenophora teres | [2]

CCN(C)/C=N/c1cc(Br)c(OC2Cc3cc(Br)c(OC)cc3C2)nc1C (stereo not shown) [Q.202]
≥ 50%: Pyrenophora teres | [2] | [3]

C=C(C)CC(CC(=C)C)Oc1nc(C)c(/N=C/N(C)CC)cc1Br [Q.232]
≥ 50%: [1] | Pyrenophora teres | [2]

CCN(C)/C=N/c1cc(Br)c(OC(C)c2cccs2)nc1C (stereo not shown) [Q.237]
≥ 50%: Pyrenophora teres | [2]

CCN(C)/C=N/c1cc(Br)c(OC(C)c2ccsc2)nc1C (stereo not shown) [Q.245]
≥ 50%: Pyrenophora teres | [2] | [3]

CCc1cc(/N=C/N(C)CC)c(C)nc1O[C@H]1CC[C@H](C(C)C)CC1 [Q.252]
≥ 50%: Pyrenophora teres | [2]

C#Cc1cc(/N=C/N(C)CC)c(C)nc1O[C@H]1CC[C@H](C(C)C)CC1 [Q.253]
≥ 50%: [1] | Pyrenophora teres | [2]

CCN(C)/C=N/c1cc(Br)c(OC(C)c2cc(F)cc(F)c2)nc1C (stereo not shown) [Q.256]
≥ 50%: Pyrenophora teres

CCN(C)/C=N/c1cc(Br)c(OCc2cccc(C#Cc3ccccc3)c2)nc1C [Q.311]
≥ 50%: [1] | Pyrenophora teres | [2]

COc1ccccc1COc1ccc(/N=C/N(C)C(C)C)c(C)n1 [Q.366]
≥ 50%: [1] | Pyrenophora teres | [2]

CCN(C)/C=N/c1ccc(OC(C)c2cc(OC)cc(OC)c2)nc1C (stereo not shown) [Q.373]
≥ 50%: [1] | [2] | [3]

COc1cc(OC)cc(C(C)Oc2ccc(/N=C/N(C)C(C)C)c(C)n2)c1 (stereo not shown) [Q.374]
≥ 50%: [1] | [2] | [3]

COc1cc(COc2ccc(/N=C/N(C)C(C)C)c(C)n2)cc(OC)c1 [Q.377]
≥ 50%: [1] | Pyrenophora teres | [2]

CCN(C)/C=N/c1ccc(O[C@H]2CC[C@@H](CC)CC2)nc1C [Q.381]
≥ 50%: [1] | [2] | [3]

CCN(C)/C=N/c1cc(Br)c(OCC(F)F)nc1C [Q.383]
≥ 50%: [1] | [2] | [3]

CCN(C)/C=N/c1cc(Br)c(OCC(C)F)nc1C (stereo not shown) [Q.384]
≥ 50%: [1] | [2] | [3]

C/C=C/c1cc(/N=C/N(C)CC)c(C)nc1OCc1ccccc1C [Q.385]
≥ 50%: [1] | [2] | [3]

CCCOc1nc(C)c(/N=C/N(C)CC)cc1Br [Q.388]
≥ 50%: [1] | [2] | [3]

CCN(C)/C=N/c1cc(Br)c(OCc2ccccc2C)nc1Br [Q.397]
≥ 50%: [1] | [2] | [3]

CCN(C)/C=N/c1cc(Br)c(OCc2ccccc2C)nc1C1CC1 [Q.401]
≥ 50%: [1] | [2] | [3]
